From patent publication US20260109712A1, “RIFAMYCINS FOR NONTUBERCULOUS MYCOBACTERIA” (priority 2022, published 2026)
Values after ≈ are worked out from the molar mass of the structure shown. Read-outs that look alike come from different tables or passages of the source.

Columns and labels:
[1] = test system: M. abscessus subsp. bolletii CCUG 50184T; assay: MIC, anti-mycobacterial profiling; format: cell-based, Mycobacterium abscessus; conditions: for MIC: mean of two experiments
Experimental: (§1) MIC determination was carried out in 96-well plate format as previously described.^[13-14] 96-well plates were initially set up with 100 μL of 7H9 per well. For each compound, a ten-point two-fold dilution series starting at twice the desired highest concentration was dispensed onto the 96-well plates using a Tecan D300e Digital Dispenser, with the DMSO concentration normalized to 2%. M. abscessus culture grown to mid-log phase (OD600=0.4-0.6) was diluted to OD600=0.1 (1×10^7 CFU/mL). 100 μL of the resulting bacteria suspension was dispensed onto the 96-well plates containing compounds to give a final volume of 200 μL per well with an initial OD600=0.05 (5×10^6 CFU/mL) and final DMSO concentration of 1%. Final compound concentration ranges were typically 50-0.098 μM, 6.25-0.012 μM, 0.006-3.13 μM, or 0.003-1.56 μM. Untreated control wells are included on each plate that contain bacteria suspension and 1% DMSO. Plates were sealed with parafilm, stored in boxes with wet paper towels and incubated at 37° C. with shaking (110 RPM). Plates were incubated for 3 days. To determine growth, OD600 was measured using a Tecan Infinite M200 plate reader on Day 0 and Day 3. Two biological replicates were performed. Clarithromycin was included in each experiment as a positive control.
(§2) For each well on the 96-well plate, bacterial growth was calculated by subtracting the Day 0 OD600 value from the Day 3 OD600 value. For each compound series, the bacterial growth values for the untreated control wells were averaged to give the average drug-free bacterial growth. For compound-containing wells, percentage growth was calculated by dividing their growth values by the average drug-free bacterial growth for the compound series and multiplying by 100. For each compound series, we plotted percentage growth versus compound concentration. By visual inspection of the dose-response curve, we determined the MIC of a compound as the compound concentrations that would result in 90% growth inhibition.
(§3) The MIC data was determined using methods disclosed in Example 1.

[2] = test system: M. abscessus subsp. massiliense CCUG 48898T; assay: MIC, anti-mycobacterial profiling; format: cell-based, Mycobacterium abscessus; conditions: for MIC: mean of two experiments
Experimental: as §1, §2, §3

M. szulgai ATCC 35799 = assay: MIC, anti-mycobacterial profiling; format: cell-based, Mycobacterium szulgai; conditions: for MIC: mean of two experiments
[3] = test system: M. intracellulare ATCC 13950; assay: MIC, anti-mycobacterial profiling; format: cell-based, Mycobacterium intracellulare; conditions: for MIC: mean of two experiments
M. kansasii ATCC 12478 = assay: MIC, anti-mycobacterial profiling; format: cell-based, Mycobacterium kansasii; conditions: for MIC: mean of two experiments
M. abscessus Bamboo = assay: MIC assay, clinical isolate Bamboo; format: cell-based, Mycobacterium abscessus; conditions: for MIC: broth, M. abscessus Bamboo, Table 16, read-out: MIC
RFB-R1 M. abscessus = assay: microbe, parasite or virus in culture; format: cell-based, Mycobacterium abscessus; conditions: for MIC: Mycobacteroides abscessus, read-out: RFB-R1 M. abscessus MIC
M. xenopi ATCC 19250 = assay: MIC, anti-mycobacterial profiling; format: cell-based, Mycobacterium xenopi; conditions: for MIC: mean of two experiments
M. simiae ATCC 25275 = assay: MIC, anti-mycobacterial profiling; format: cell-based, Mycobacterium simiae; conditions: for MIC: mean of two experiments
[4] = Mycobacterium szulgai, ATCC35799
[5] = Mycobacterium intracellulare, ATCC13950
[6] = Mycobacterium kansasii, ATCC12478
[7] = Mycobacterium xenopi, ATCC19250
[8] = Mycobacterium simiae, ATCC25275

SMILES	MIC ([1]; Mycobacteroides abscessus) [µM]	MIC ([2]; Mycobacteroides abscessus) [µM]	MIC (M. szulgai ATCC 35799; [4]) [µM]	MIC [3, 5] [µM]	MIC (M. kansasii ATCC 12478; [6]) [µM]	MIC (M. abscessus Bamboo; Mycobacteroides abscessus) [µM]	MIC (RFB-R1 M. abscessus) [µM]	MIC (M. xenopi ATCC 19250; [7]) [µM]	MIC (M. simiae ATCC 25275; [8]) [µM]	further results
CO[C@H]1/C=C/O[C@@]2(C)Oc3c(C)c(O)c4c(c3C2=O)C2=NC3(CCN(CC(C)C)CC3)NC2=C(NC(=O)/C(C)=C/C=C/[C@H](C)[C@H](O)[C@@H](C)[C@@H](O)[C@@H](C)[C@H](OC(=O)c2cccnc2)[C@@H]1C)C4=O [5m, 25-O-(3-pyridinecarbonyl)-25-O-desacetyrifabutin]										Fold improvement (RFB-5m vs RFB) [1]: 31; MIC [1]: 0.07 µM (≈ 0.0637 µg/mL); Fold improvement (RFB-5m vs RFB) [2]: 12; MIC [2]: 0.05 µM (≈ 0.0455 µg/mL); Fold improvement (RFB-5m vs RFB) (M. szulgai ATCC 35799): 1.7; MIC (M. szulgai ATCC 35799): 0.006 µM (≈ 0.00546 µg/mL); Fold improvement (RFB-5m vs RFB) [3]: 0.8; MIC [3]: 0.06 µM (≈ 0.0546 µg/mL); Fold improvement (RFB-5m vs RFB) (M. kansasii ATCC 12478): 1.0; MIC (M. kansasii ATCC 12478): 0.008 µM (≈ 0.00728 µg/mL); Mab Bamboo MIC (M. abscessus Bamboo; 90% inhibition of bacterial growth): 0.023 µM; MIC (M. abscessus Bamboo): 0.02 µM (≈ 0.0182 µg/mL); RFB-R1 M. abscessus MIC (RFB-R1 M. abscessus; rpoB H447Y mutant, 90% inhibition): >100 µM; Fold improvement (RFB-5m vs RFB) (M. xenopi ATCC 19250): 4.0; MIC (M. xenopi ATCC 19250): 0.005 µM (≈ 0.00455 µg/mL); Fold improvement (RFB-5m vs RFB) (M. simiae ATCC 25275): 95; MIC (M. simiae ATCC 25275): 0.2 µM (≈ 0.182 µg/mL)
CC[C@H]1OC(=O)[C@H](C)[C@@H](O[C@H]2C[C@@](C)(OC)[C@@H](O)[C@H](C)O2)[C@H](C)[C@@H](O[C@@H]2O[C@H](C)C[C@H](N(C)C)[C@H]2O)[C@](C)(OC)C[C@@H](C)C(=O)[C@H](C)[C@@H](O)[C@]1(C)O [clarithromycin, reference compound]	4.3 (≈ 3.22 µg/mL)	1.1 (≈ 0.823 µg/mL)	0.3 (≈ 0.224 µg/mL)	0.4 (≈ 0.299 µg/mL)	0.3 (≈ 0.224 µg/mL)	0.4 (≈ 0.299 µg/mL)	2.1 (≈ 1.57 µg/mL)	0.06 (≈ 0.0449 µg/mL)	12 (≈ 8.98 µg/mL)	
CO[C@H]1/C=C/O[C@@]2(C)Oc3c(C)c(O)c4c(c3C2=O)C2=NC3(CCN(CC(C)C)CC3)NC2=C(NC(=O)/C(C)=C\C=C\[C@H](C)[C@H](O)[C@@H](C)[C@@H](O)[C@@H](C)[C@H](OC(C)=O)[C@@H]1C)C4=O [rifabutin, reference compound]	2.2 (≈ 1.86 µg/mL)	0.6 (≈ 0.508 µg/mL)	0.01 (≈ 0.00847 µg/mL)	0.05 (≈ 0.0424 µg/mL)	0.008 (≈ 0.00678 µg/mL)	3 (≈ 2.54 µg/mL)	> 100	0.02 (≈ 0.0169 µg/mL)	19 (≈ 16.1 µg/mL)	
